Biological target: PARP1 (Homo sapiens, UniProt P09874)
Experiment: in vitro PARP1 activity ELISA, recombinant enzyme
Type: biochemical

PARP1, sequence (P09874 2-1014): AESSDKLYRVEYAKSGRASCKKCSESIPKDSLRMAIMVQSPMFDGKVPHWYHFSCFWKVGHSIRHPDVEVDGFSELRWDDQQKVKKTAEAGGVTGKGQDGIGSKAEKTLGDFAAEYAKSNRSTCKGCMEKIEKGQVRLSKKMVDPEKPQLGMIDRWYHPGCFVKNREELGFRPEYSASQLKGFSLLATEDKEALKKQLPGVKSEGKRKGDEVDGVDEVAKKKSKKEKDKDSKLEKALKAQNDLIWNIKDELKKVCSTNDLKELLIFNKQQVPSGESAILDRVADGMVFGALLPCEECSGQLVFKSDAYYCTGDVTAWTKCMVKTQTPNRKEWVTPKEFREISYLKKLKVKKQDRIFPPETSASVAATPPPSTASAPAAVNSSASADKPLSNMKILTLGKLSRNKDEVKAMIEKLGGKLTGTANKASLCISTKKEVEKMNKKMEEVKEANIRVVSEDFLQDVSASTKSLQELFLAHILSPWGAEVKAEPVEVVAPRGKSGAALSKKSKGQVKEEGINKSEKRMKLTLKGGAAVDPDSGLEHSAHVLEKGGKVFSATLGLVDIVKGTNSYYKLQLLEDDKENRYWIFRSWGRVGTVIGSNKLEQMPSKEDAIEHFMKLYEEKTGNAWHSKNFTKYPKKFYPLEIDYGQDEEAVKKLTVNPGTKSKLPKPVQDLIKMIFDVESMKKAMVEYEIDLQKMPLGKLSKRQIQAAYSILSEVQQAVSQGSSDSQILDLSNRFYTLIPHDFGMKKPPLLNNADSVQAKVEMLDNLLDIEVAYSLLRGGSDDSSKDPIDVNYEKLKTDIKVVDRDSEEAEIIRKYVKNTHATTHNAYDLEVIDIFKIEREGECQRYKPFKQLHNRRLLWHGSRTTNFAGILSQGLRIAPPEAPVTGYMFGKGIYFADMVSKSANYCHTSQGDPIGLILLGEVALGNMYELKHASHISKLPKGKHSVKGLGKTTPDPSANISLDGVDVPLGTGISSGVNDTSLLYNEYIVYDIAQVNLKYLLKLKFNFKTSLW

- IC50: 540 nM
Structure (SMILES): Cc1ccc2c(=O)[nH]c(-c3ccc(C(C)(C)O)cc3)cn12 [MSC2504877]

— publication PMC6336890 (Scientific Reports, 2019)
